Tests used:
Bcap-37 = assay: MTT growth inhibition, Bcap-37; type: cell-based; conditions: Homo sapiens, Bcap37, Mammary Carcinoma, MTT assay
Description: (§1) For cell viability assay, cells were seeded in wells of 96-well plates for 2 days and then treated with different concentrations of mushroom extract fractions or purified verticillin A for 2 days. The cells were then incubated with MTT (3-(4,5-dimethylthiazol-2-yl)-2,5-diphenyltetrazolium bromide) using the MTT assay kit (ATCC, Manassas, Va.) according to the manufacturer's instructions.
(§2) To determine whether verticillin A inhibits other types of tumor cell growth, Mammary carcinoma (Bcap-37 and MCF-7), heptocarcinoma (HepG2), cervical (HeLa), liver (SMMC-7721), lung (SPC-A1) cancer cells and T cell leukemia (Jurkat) were cultured in the presence of different concentrations of verticillin A and examined for the efforts of verticillin A on the growth rate of these tumor cells in vitro.

SMMC-7721 = assay: MTT growth inhibition, SMMC-7721; type: cell-based; conditions: Homo sapiens, Hepatoma, MTT assay
Description: as §1, §2

HepG2 cells [1] = assay: MTT growth inhibition, HepG2; type: cell-based, human
Description: as §1
(§3) The growth inhibitory effort of the purified verticillin A was examined on HepG2 cells. Tumor cells were cultured in the presence of different concentrations of verticillin A and analyzed for the growth by MTT assay 24 and 72 h later, respectively. […] To determine whether the growth inhibitory effect is due to increased tumor cell death, genomic DNA was isolated from the treated tumor cells and analyzed by agarose gel electrophoresis.
as §2

HepG2 cells [2] = assay: DNA fragmentation assay; type: cell-based, human; conditions: HepG2, agarose gel electrophoresis
Description: Tumor cells were lysed in lysis buffer (5 mM Tris-HCl, pH 8.0, 100 mM Ethylenediaminetetraacetic acid (EDTA), 1% (w/v) Sodium dodecyl sulfate (SDS), and proteinase K) at 45° C. for 2 h. RNA was removed by incubation with RNase A. Genomic DNA was extracted by phenol/chloroform/isoamyl alcohol (25:24:1) and precipitated with ethanol. The purified genomic DNA was then analyzed by electrophoresis in a 1.2% agarose gel.
as §3

HepG2 tumor = HepG2 tumor growth in athymic mice; type: in vivo; conditions: intravenous injection
Description: To determine whether the growth inhibitory effect of verticillin A can be extended to in vivo tumor growth inhibition, HepG2 cells were injected subcutaneously to athymic mice. Tumor-bearing mice were then treated with verticillin A by intravenous injection.
Athymic mice were subcutaneously inoculated with human hepatoma HepG2 and colon carcinoma SW620 cells, respectively. The tumor-bearing mice were randomized into experimental groups. The control mice were given saline. The treatment group was intravenously injected with verticillin A at the doses of 1 and 2 mg/kg body weight. Tumor size was measured in 2 diameter with micrometer caliper at the indicate times to permit calculation of tumor volume, V=(a×b^2)/2, where “a” is the length and “b” is the width in millimeters. At the end of the experiment, all the animals were sacrificed, The tumor inhibitory rates were calculated using the following formula: [(mean tumor volume of control nude mice−mean tumor volume of treated nude mice)/mean tumor volume of control nude mice]×100%.

SW620 cells [3] = assay: Apoptosis and TRAIL sensitization of SW620 cells (PI/annexin V flow cytometry); type: cell-based, human
Description: (§4) Cells were seeded in wells of 96-well plates for 2 days and then treated with different concentrations of mushroom extract fractions or purified verticillin A for 2 days. The cells were stained with propidium iodide (PI) (Trevigen, Gaithersburg, Md.) or PI plus annexin V-Alex Fluor 647 (Biolegend, San Diego, Calif.) and analyzed by flow cytometry.
SW620 is a metastatic human colon carcinoma cell line that is resistant to TRAIL-induced apoptosis (Voelkel-Johnson C, et al. Mol Cancer Ther 2005 4(9):1320-7).

[4] = system: 6 other human colon carcinoma cells; assay: TRAIL sensitization in other colon carcinoma cells; type: cell-based; conditions: verticillin A and TRAIL
Description: as §4
The sensitization effects of verticillin A was examined in other types of tumor cells.

SW620 cells [5] = assay: Sensitization to FasL-induced apoptosis; type: cell-based, human; conditions: SW620, verticillin A pre-treatment then recombinant FasL
Description: Because the Fas-mediated apoptosis and TRAIL-induced apoptosis share similar signaling pathways, it was next tested whether Verticillin A also sensitizes tumor cells to FasL-induced apoptosis. SW620 cells were treated with verticillin A, followed by treatment with recombinant FasL.

SW620 cells [6] = assay: SW620 growth with anticancer drugs, MTT assay; type: cell-based, human; conditions: Verticillin A pretreatment, then Etoposide, Cisplatin, 5-FU or Doxorubicin
Description: as §1
Etoposie, Cisplatin, 5-FU and Doxorubicin are commonly used cancer drugs that suppress tumor cell growth through their cytotoxicity. High cytotoxicity is often associated with high dose of their drugs. Furthermore, tumor cells often develop resistance to these cytotoxic drugs. To determine whether Verticillin A can increase the efficacy of these drugs and overcome drug resistance, the effectiveness of Verticillin A combined with these 4 drugs in suppression of tumor cell growth was tested in vitro. SW620 cell sensitivity to these drugs was first measured. SW620 cells are resistant to Etoposide but sensitive to 5-FU. […] SW620 cells were next pretreated with Verticillin A, followed by treatment with Etoposide (1 μg/ml), Cisplatin (1 μg/ml), 5-FU ([…]) and Doxorubicin (0.01 μg/ml), respectively.

[7] = system: BNIP3, IRF8, Neurog1, p15ink4b, RUNX3; assay: Expression of genes with methylated promoters; type: cell-based, human; conditions: SW620, verticillin A 0-50 nM
Description: To determine whether verticillin A inhibits DNA methylation in other gene promoters, 4 other genes (IRF8, Neurog1, p15ink4b, RUNX3) with known promoter DNA methylation in human colon carcinoma cells were selected. SW620 cells were treated with AzadC (0-1.0 μM) and verticillin A (0-50 nM), respectively, and analyzed for the expression of BNIP3 and these 4 genes.

CN1C(=O)[C@]23SS[C@]1(C)C(=O)N2C1Nc2ccccc2[C@@]1(C12c4ccccc4NC1N1C(=O)[C@@]4(C)SS[C@]1(C(=O)N4C)[C@H]2O)[C@@H]3O (stereo partly shown) [Verticillin A]
IC50 (Bcap-37): 119 nM
IC50 (SMMC-7721): 80 nM
concentration at which the inhibitory effect reached plateau (HepG2 cells [1]; HepG2, MTT assay 24 and 72 h): 100 to 150 nM
lowest concentration exhibiting growth inhibitory effect (HepG2 cells [1]; HepG2, MTT assay 24 and 72 h): 10 nM
IC50 (HepG2 cells [1]; Homo sapiens, Hepatoma, HepG2, MTT assay): 62 nM
inhibitory activity against HepG2 cells (HepG2 cells [1]; purified compound, cytotoxicity screen): potent inhibitory activity
genomic DNA fragmentation (HepG2 cells [2]): induces genomic DNA fragmentation
HepG2 tumor growth inhibition (HepG2 tumor; 2 mg/kg body weight): significantly inhibited HepG2 tumor growth
HepG2 tumor growth inhibition, dose dependence (HepG2 tumor; 1 and 2 mg/kg body weight): tumor growth inhibitory effects at a dose-dependent manner
sensitization to TRAIL-induced apoptosis (SW620 cells [3]; SW620, 10 nM verticillin A in combination with TRAIL): dramatically sensitized SW620 cells to TRAIL-induced apoptosis
apoptosis induction, single agent (SW620 cells [3]; SW620, agent alone): induced significant apoptosis
concentration that overcomes TRAIL resistance (SW620 cells [3]; human cancer cells): 10 nM
sensitization to TRAIL-induced apoptosis [4]: sensitization effect of verticillin A was also observed
sensitization to FasL-induced apoptosis (SW620 cells [5]): significantly increases tumor cells to FasL-induced apoptosis
tumor growth inhibitory effect of the drugs combined with Verticillin A (SW620 cells [6]): significantly increased the tumor growth inhibitory effects
expression levels of BNIP3, IRF8, Neurog1, p15ink4b, RUNX3 [7]: dramatically increased the expression levels of BNIP3 and these 4 genes
